# Source: US10792289B2 (Horizon Orphan LLC, priority 2009, dated 2020)
# Tested on: stable CF patients
# Assay: Phase 2 study: pulmonary function (FEV1, FVC, FEF 25-75)
# Type: in vivo, human
# Design: FEF 25-75, Median / FEV1, Day 14, Mean / FEF 25-75, Mean: unit not given here; FEV1, Day 1, Mean / FEV1, Day 1, Median / FEV1, Day 14, Median / FEV1, Day 28, Mean / FEV1, Day 28, Median: unit: L
# Conditions: for Increase in FEF 25-75 / Increase in FEV1: median Day 1 to Day 28; for FEV1, Day 1, Mean / FEV1, Day 1, Median / FEV1, Day 14, Mean / FEV1, Day 14, Median / FEV1, Day 28, Mean / FEV1, Day 28, Median / FEV1, Percent Change from Baseline to Day 14, Mean / FEV1, Percent Change from Baseline to Day 14, Median / FEV1, Percent Change from Baseline to Day 28, Mean / FEV1, Percent Change from Baseline to Day 28, Median / % predicted FEV1, Mean / % predicted FEV1, Median: MITT population
# Description: The following dosage regimens (as nebulizer loaded doses) were evaluated: 120 mg QD (daily); 240 mg QD (daily); and 240 mg BID (twice daily).
# Efficacy endpoints including clinical endpoints, pulmonary function tests, and additional microbiological parameters were assessed as change from Day 1 to subsequent visits where the endpoint data was collected. Time to need for intravenous/oral/inhaled anti-pseudomonal antimicrobials were assessed from Day 1 until final visit using survival analysis. The primary population for efficacy analysis was the EE population, but efficacy endpoints were also analyzed using the MITT population.
# Changes in FEV1 (forced expiratory volume in 1 second), FVC (forced vital capacity) and FEF 25-75 (forced expiratory flow 25-75%) from Day 1 to all subsequent visits were determined for patients. Tables 26 and 27 summarize the results for FEV1 measurements in EE and MITT populations, respectively. FIGS. 7 and 8 show graphs of percent change in FEV1 (L) and percent change in FEV1(L) vs. placebo, respectively, at Day 28 for the EET population treated with placebo, 120 mg QD, 240 mg QD, or 240 mg BID. […] Tables 28 and 29 summarize the results for predicted FEVI measurements in EE and MITT populations, respectively. Tables 30 and 31 summarize results for FEF 25-75 measurements in EE and MITT populations, respectively.
# [1] = EE, 240 mg BID, Day 1 (baseline)
# [2] = Day 1 (baseline), combined 240 mg QD and BID
# [3] = Day 14, combined 240 mg QD and BID
# [4] = Day 28, combined 240 mg QD and BID
# [5] = MITT, 240 mg BID, Day 1 (baseline)
smiles,measurement,setting,value
"C[C@H]1COc2c(N3CCN(C)CC3)c(F)cc3c(=O)c(C(=O)O)cn1c23 [Levofloxacin, levofloxacin]","FEF 25-75, Median","EE population, Day 28, combined 240 mg QD and BID",0.97
same,"FEF 25-75, Median","EE, 120 mg QD, Day 1",0.98
same,"FEV1, median","EE, 120 mg QD, Day 1",1.87 L
same,"FEF 25-75, Median","EE, 120 mg QD, Day 28",1.03
same,"FEV1, median","EE, 120 mg QD, Day 28",1.91 L
same,Increase in FEF 25-75,"EE, 120 mg QD",approximately 5%
same,Increase in FEV1,"EE, 120 mg QD",approximately 2%
same,"FEF 25-75, Median",[1],0.68
same,"FEV1, median",[1],1.70 L
same,"FEF 25-75, Median","EE, 240 mg BID, Day 28",0.78
same,"FEV1, median","EE, 240 mg BID, Day 28",1.79 L
same,Increase in FEF 25-75,"EE, 240 mg BID",approximately 15%
same,Increase in FEV1,"EE, 240 mg BID",approximately 5%
same,"FEF 25-75, Median","EE, 240 mg QD, Day 1",1.10
same,"FEV1, median","EE, 240 mg QD, Day 1",2.02 L
same,"FEF 25-75, Median","EE, 240 mg QD, Day 28",1.15
same,"FEV1, median","EE, 240 mg QD, Day 28",2.15 L
same,Increase in FEF 25-75,"EE, 240 mg QD",approximately 4%
same,Increase in FEV1,"EE, 240 mg QD",approximately 6%
same,"Largest difference for FEF 25-75, placebo vs levofloxacin","EE, Day 14",0.25 L
same,"Largest difference for FEV1, placebo vs levofloxacin","EE, Day 14",0.16 L
same,"Largest difference for FEF 25-75, placebo vs levofloxacin","EE, Day 28",0.21 L
same,"Largest difference for FEV1, placebo vs levofloxacin","EE, Day 28",0.24 L
same,"FEV1, Day 1, Mean",120 mg QD,1.95
same,"FEV1, Day 1, Median",120 mg QD,1.83
same,"FEV1, Day 14, Mean",120 mg QD,1.97
same,"FEV1, Day 14, Median",120 mg QD,1.79
same,"FEV1, Day 28, Mean",120 mg QD,1.99
same,"FEV1, Day 28, Median",120 mg QD,1.83
same,"FEV1, Percent Change from Baseline to Day 14, Mean",120 mg QD,1.87%
same,"FEV1, Percent Change from Baseline to Day 14, Median",120 mg QD,0.56%
same,"FEV1, Percent Change from Baseline to Day 28, Mean",120 mg QD,1.92%
same,"FEV1, Percent Change from Baseline to Day 28, Median",120 mg QD,1.60%
same,"FEV1, Day 1, Mean",240 mg BID,1.88
same,"FEV1, Day 1, Median",240 mg BID,1.70
same,"FEV1, Day 14, Mean",240 mg BID,2.04
same,"FEV1, Day 14, Median",240 mg BID,1.90
same,"FEV1, Day 28, Mean",240 mg BID,1.93
same,"FEV1, Day 28, Median",240 mg BID,1.82
same,"FEV1, Percent Change from Baseline to Day 14, Mean",240 mg BID,9.34%
same,"FEV1, Percent Change from Baseline to Day 14, Median",240 mg BID,7.51%
same,"FEV1, Percent Change from Baseline to Day 28, Mean",240 mg BID,5.93%
same,"FEV1, Percent Change from Baseline to Day 28, Median",240 mg BID,3.55%
same,"FEV1, Day 1, Mean",240 mg QD,2.05
same,"FEV1, Day 1, Median",240 mg QD,1.90
same,"FEV1, Day 14, Mean",240 mg QD,2.12
same,"FEV1, Day 14, Median",240 mg QD,2.04
same,"FEV1, Day 28, Mean",240 mg QD,2.09
same,"FEV1, Day 28, Median",240 mg QD,2.10
same,"FEV1, Percent Change from Baseline to Day 14, Mean",240 mg QD,3.81%
same,"FEV1, Percent Change from Baseline to Day 14, Median",240 mg QD,1.92%
same,"FEV1, Percent Change from Baseline to Day 28, Mean",240 mg QD,2.35%
same,"FEV1, Percent Change from Baseline to Day 28, Median",240 mg QD,1.28%
same,"FEV1, Day 1, Mean",Combined 240 mg QD and BID,1.96
same,"FEV1, Day 1, Median",Combined 240 mg QD and BID,1.80
same,"FEV1, Day 14, Mean",Combined 240 mg QD and BID,2.08
same,"FEV1, Day 14, Median",Combined 240 mg QD and BID,1.97
same,"FEV1, Day 28, Mean",Combined 240 mg QD and BID,2.01
same,"FEV1, Day 28, Median",Combined 240 mg QD and BID,1.95
same,"FEV1, Percent Change from Baseline to Day 14, Mean",Combined 240 mg QD and BID,6.61%
same,"FEV1, Percent Change from Baseline to Day 14, Median",Combined 240 mg QD and BID,3.94%
same,"FEV1, Percent Change from Baseline to Day 28, Mean",Combined 240 mg QD and BID,4.14%
same,"FEV1, Percent Change from Baseline to Day 28, Median",Combined 240 mg QD and BID,2.50%
same,"% predicted FEV1, Mean","Day 1 (baseline), 120 mg QD",52.9%
same,"% predicted FEV1, Median","Day 1 (baseline), 120 mg QD",53.0%
same,"% predicted FEV1, Mean","Day 1 (baseline), 240 mg BID",48.8%
same,"% predicted FEV1, Median","Day 1 (baseline), 240 mg BID",46.0%
same,"% predicted FEV1, Mean","Day 1 (baseline), 240 mg QD",55.4%
same,"% predicted FEV1, Median","Day 1 (baseline), 240 mg QD",56.0%
same,"% predicted FEV1, Mean",[2],52.0%
same,"% predicted FEV1, Median",[2],51.0%
same,"% predicted FEV1, Mean","Day 14, 120 mg QD",53.9%
same,"% predicted FEV1, Median","Day 14, 120 mg QD",53.0%
same,"% predicted FEV1, Mean","Day 14, 240 mg BID",52.1%
same,"% predicted FEV1, Median","Day 14, 240 mg BID",49.56%
same,"% predicted FEV1, Mean","Day 14, 240 mg QD",57.1%
same,"% predicted FEV1, Median","Day 14, 240 mg QD",61.0%
same,"% predicted FEV1, Mean",[3],54.6%
same,"% predicted FEV1, Median",[3],52.0%
same,"% predicted FEV1, Mean","Day 28, 120 mg QD",54.1%
same,"% predicted FEV1, Median","Day 28, 120 mg QD",50.0%
same,"% predicted FEV1, Mean","Day 28, 240 mg BID",50.8%
same,"% predicted FEV1, Median","Day 28, 240 mg BID",49.0%
same,"% predicted FEV1, Mean","Day 28, 240 mg QD",56.7%
same,"% predicted FEV1, Median","Day 28, 240 mg QD",54.0%
same,"% predicted FEV1, Mean",[4],53.8%
same,"% predicted FEV1, Median",[4],53.5%
same,"FEF 25-75, Median",[5],0.68
same,"FEV1, median",[5],1.70 L
same,"FEF 25-75, Median","MITT, 240 mg BID, Day 28",0.82
same,"FEV1, median","MITT, 240 mg BID, Day 28",1.82 L
same,Increase in FEF 25-75,"MITT, 240 mg BID",approximately 20%
same,Increase in FEV1,"MITT, 240 mg BID",approximately 7%
same,"FEF 25-75, Median","MITT, 240 mg QD, Day 1",1.09
same,"FEV1, median","MITT, 240 mg QD, Day 1",1.90 L
same,"FEF 25-75, Median","MITT, 240 mg QD, Day 28",1.12
same,"FEV1, median","MITT, 240 mg QD, Day 28",2.10 L
same,Increase in FEF 25-75,"MITT, 240 mg QD",approximately 3%
same,Increase in FEV1,"MITT, 240 mg QD",approximately 10%
same,"Largest difference for FEF 25-75, placebo vs levofloxacin","MITT, Day 14",0.27 L
same,"Largest difference for FEV1, placebo vs levofloxacin","MITT, Day 14",0.12 L
same,"Largest difference for FEF 25-75, placebo vs levofloxacin","MITT, Day 28",0.21 L
same,"Largest difference for FEV1, placebo vs levofloxacin","MITT, Day 28",0.25 L
